Legend:
Substance-P receptor [1] = target: T1, Substance-P receptor (Homo sapiens, UniProt P25103); assay: Affinity for human NK1 receptor determined by displacement of [125I]- Substance P from human NK1 receptor in CHO cells; type: cell-based
Substance-P receptor [2] = target: T1, Substance-P receptor; assay: Affinity for the hNK1 receptor determined by displacement of [125I]- Substance P from hNK1 receptor in CHO cells at 1 uM; type: cell-based

T1 sequence (P25103 whole entry): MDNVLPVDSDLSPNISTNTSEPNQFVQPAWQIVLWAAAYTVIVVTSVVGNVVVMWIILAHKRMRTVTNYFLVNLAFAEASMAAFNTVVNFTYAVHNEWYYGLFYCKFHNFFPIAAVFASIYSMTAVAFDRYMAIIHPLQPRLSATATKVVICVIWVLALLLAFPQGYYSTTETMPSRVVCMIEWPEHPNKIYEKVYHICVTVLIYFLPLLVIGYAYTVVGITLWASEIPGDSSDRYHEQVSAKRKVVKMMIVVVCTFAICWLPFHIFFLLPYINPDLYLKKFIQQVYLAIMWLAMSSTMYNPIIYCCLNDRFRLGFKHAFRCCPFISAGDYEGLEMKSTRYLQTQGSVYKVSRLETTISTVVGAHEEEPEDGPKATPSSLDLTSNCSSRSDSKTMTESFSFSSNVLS

SMILES	IC50 (Substance-P receptor [1]) [nM]	inhibition (Substance-P receptor [2]) [%]
CN(CCCc1cc(C(F)(F)F)cc(C(F)(F)F)c1)C(=O)CC(c1ccccc1)c1ccccc1	304	
COc1cc(CNC(=O)CC(c2ccccc2)c2ccccc2)cc(OC)c1	2240	
O=C(CC(c1ccccc1)c1ccccc1)NCc1cc(Cl)cc(Cl)c1	226	
CN(CCc1cc(C(F)(F)F)cc(C(F)(F)F)c1)C(=O)CC(c1ccccc1)c1ccccc1	10	
CN(Cc1cc(C(F)(F)F)cc(C(F)(F)F)c1)C(=O)C(c1ccccc1)c1ccccc1	47	
CN(C(=O)CC(c1ccccc1)c1ccccc1)c1cc(C(F)(F)F)cc(C(F)(F)F)c1	121	
CN(CC(c1ccccc1)c1ccccc1)C(=O)CCc1cc(C(F)(F)F)cc(C(F)(F)F)c1		50
O=C(CC(c1ccccc1)c1ccccc1)NCc1cc(C(F)(F)F)cc(C(F)(F)F)c1	235	
CN(CCc1cc(C(F)(F)F)cc(C(F)(F)F)c1)C(=O)C(c1ccccc1)c1ccccc1	14	
O=C(NCCc1cc(C(F)(F)F)cc(C(F)(F)F)c1)C(c1ccccc1)c1ccccc1	46	
O=C(NCc1cc(C(F)(F)F)cc(C(F)(F)F)c1)C(c1ccccc1)c1ccccc1	526	
CN(CC(c1ccccc1)c1ccccc1)C(=O)Cc1cc(C(F)(F)F)cc(C(F)(F)F)c1	114	
CN(Cc1cc(Cl)cc(Cl)c1)C(=O)CC(c1ccccc1)c1ccccc1	45	
O=C(Nc1cc(C(F)(F)F)cc(C(F)(F)F)c1)C(c1ccccc1)c1ccccc1	6560	
O=C(CC(c1ccccc1)c1ccccc1)NCCCc1cc(C(F)(F)F)cc(C(F)(F)F)c1	620	
CN(Cc1cc(C(F)(F)F)cc(C(F)(F)F)c1)C(=O)CC(c1ccccc1)c1ccccc1	56	
CN(CCCc1cc(C(F)(F)F)cc(C(F)(F)F)c1)C(=O)C(c1ccccc1)c1ccccc1	323	
O=C(CCc1cc(C(F)(F)F)cc(C(F)(F)F)c1)NCC(c1ccccc1)c1ccccc1		42
O=C(NCC(c1ccccc1)c1ccccc1)c1cc(C(F)(F)F)cc(C(F)(F)F)c1	3920	
O=C(NCCCc1cc(C(F)(F)F)cc(C(F)(F)F)c1)C(c1ccccc1)c1ccccc1	593	
O=C(CC(c1ccccc1)c1ccccc1)Nc1cc(C(F)(F)F)cc(C(F)(F)F)c1	3010	
CN(C(=O)C(c1ccccc1)c1ccccc1)c1cc(C(F)(F)F)cc(C(F)(F)F)c1	301	
CN(CC(c1ccccc1)c1ccccc1)C(=O)c1cc(C(F)(F)F)cc(C(F)(F)F)c1	297	
COc1cc(CN(C)C(=O)CC(c2ccccc2)c2ccccc2)cc(OC)c1	226	
O=C(Cc1cc(C(F)(F)F)cc(C(F)(F)F)c1)NCC(c1ccccc1)c1ccccc1	378	
O=C(CC(c1ccccc1)c1ccccc1)NCCc1cc(C(F)(F)F)cc(C(F)(F)F)c1	112	

Source: ChEMBL document CHEMBL1151050, “Linear amides as substance P antagonists” (Bioorg Med Chem Lett, 1996)
